Test results: ChEMBL document CHEMBL5620408, “Discovery of novel diarypyrimidine derivatives bearing six-membered non-aromatic heterocycles as potent HIV-1 NNRTIs with improved anti-resistance and drug-like profiles” (Eur J Med Chem, 2023)

Legend:
[1] = tested on: Human immunodeficiency virus 1; assay: Potency index, ratio of etravirine EC50 to test compound EC50 for antiviral activity against HIV1 IIIB; type: functional
[2] = tested on: Human immunodeficiency virus 1; assay: Potency index, ratio of efavirenz EC50 to test compound EC50 for antiviral activity against HIV1 harboring K103 N mutant; type: functional
Cytochrome P450 2C9 = Cytochrome P450 2C9 (Homo sapiens, UniProt P11712); assay: Inhibition of CYP2C9 (unknown origin); type: ADME
[3] = tested on: Human immunodeficiency virus 1; assay: Antiviral activity against HIV1 harboring K103N mutant infected in MT4 cells; type: functional, organism-based; conditions: Human immunodeficiency virus 1, MT4
[4] = tested on: Human immunodeficiency virus 1; assay: Potency index, ratio of etravirine EC50 to test compound EC50 for antiviral activity against HIV1 harboring K103 N mutant; type: functional
[5] = tested on: Human immunodeficiency virus 1; assay: Potency index, ratio of efavirenz EC50 to test compound EC50 for antiviral activity against HIV1 IIIB; type: functional
Cytochrome P450 2D6 = Cytochrome P450 2D6 (Homo sapiens, UniProt P10635); assay: Inhibition of CYP2D6 (unknown origin); type: ADME
[6] = tested on: Human immunodeficiency virus 1; assay: Potency index, ratio of (E)-3-[3,5-dimethyl-4-[2-[4-[(4-methylsulfonylpiperazin-1-yl)methyl]anilino]pyrimidin-4-yl]oxy-phenyl]prop-2-enenitrile EC50 to test compound EC50 for antiviral activity against HIV1 IIIB; type: functional
[7] = Clearance in Sprague-Dawley rat at 2 mg/kg, iv; type: ADME, organism-based; conditions: in vivo
[8] = Selectivity index, ratio of CC50 for human MT4 cells to EC50 for antiviral activity against HIV RES056
[9] = tested on: Human immunodeficiency virus 1; assay: Potency index, ratio of zidovudine EC50 to test compound EC50 for antiviral activity against HIV1 IIIB; type: functional
[10] = Half life in Sprague-Dawley rat at 2 mg/kg, iv; type: ADME, organism-based; conditions: in vivo
Cytochrome P450 1A2 = target: T1, Cytochrome P450 1A2 (Homo sapiens, UniProt P05177); assay: Inhibition of CYP1A2 (unknown origin); type: ADME
T1 sequence (P05177 whole entry): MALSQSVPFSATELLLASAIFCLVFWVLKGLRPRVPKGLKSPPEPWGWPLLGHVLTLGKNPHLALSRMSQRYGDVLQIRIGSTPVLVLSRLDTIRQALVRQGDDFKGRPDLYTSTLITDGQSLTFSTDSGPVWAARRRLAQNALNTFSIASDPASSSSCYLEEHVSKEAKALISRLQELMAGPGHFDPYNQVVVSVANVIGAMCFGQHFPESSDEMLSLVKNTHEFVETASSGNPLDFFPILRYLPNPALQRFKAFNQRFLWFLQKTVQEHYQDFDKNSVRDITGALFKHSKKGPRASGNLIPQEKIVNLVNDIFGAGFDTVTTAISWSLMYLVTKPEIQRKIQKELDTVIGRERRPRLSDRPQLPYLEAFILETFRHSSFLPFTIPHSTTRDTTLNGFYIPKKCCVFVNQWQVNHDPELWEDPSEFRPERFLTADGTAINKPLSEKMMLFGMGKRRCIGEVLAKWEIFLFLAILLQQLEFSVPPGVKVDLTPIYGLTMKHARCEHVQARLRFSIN

[11] = tested on: Human immunodeficiency virus 1; assay: Potency index, ratio of nevirapine EC50 to test compound EC50 for antiviral activity against HIV1 harboring K103 N mutant; type: functional
[12] = AUCinfinity in Sprague-Dawley rat at 2 mg/kg, iv; type: ADME, organism-based; conditions: in vivo
[13] = tested on: Human immunodeficiency virus 1; assay: Antiviral activity against HIV1 harboring Y188L mutant infected in MT4 cells; type: functional, organism-based; conditions: Human immunodeficiency virus 1, MT4
Cytochrome P450 3A4 = Cytochrome P450 3A4 (Homo sapiens, UniProt P08684); assay: Inhibition of CYP3A4 (unknown origin); type: ADME
Cytochrome P450 2C19 = Cytochrome P450 2C19 (Homo sapiens, UniProt P33261); assay: Inhibition of CYP2C19 (unknown origin); type: ADME
[14] = Cytotoxicity against human MT4 cells assessed as reduction in cell viability by MTT assay; type: toxicity, cell-based
[15] = tested on: Human immunodeficiency virus 1; assay: Potency index, ratio of (E)-3-[3,5-dimethyl-4-[2-[4-[(4-methylsulfonylpiperazin-1-yl)methyl]anilino]pyrimidin-4-yl]oxy-phenyl]prop-2-enenitrile EC50 to test compound EC50 for antiviral activity against HIV1 harboring K103 N mutant; type: functional
[16] = tested on: Human immunodeficiency virus 1; assay: Potency index, ratio of (E)-3-[3,5-dimethyl-4-[2-[4-[(4-methylsulfonylpiperazin-1-yl)methyl]anilino]pyrimidin-4-yl]oxy-phenyl]prop-2-enenitrile EC50 to test compound EC50 for antiviral activity against HIV1 harboring F227L/V106A double mutant; type: functional
[17] = Cmax in Sprague-Dawley rat at 2 mg/kg, iv; type: ADME, organism-based; conditions: in vivo
[18] = tested on: Human immunodeficiency virus 1; assay: Antiviral activity against HIV1 harboring E138K mutant infected in MT4 cells; type: functional, organism-based; conditions: Human immunodeficiency virus 1, MT4
[19] = tested on: Human immunodeficiency virus 1; assay: Antiviral activity against HIV1 harboring Y181C mutant infected in MT4 cells; type: functional, organism-based; conditions: Human immunodeficiency virus 1, MT4
[20] = tested on: Human immunodeficiency virus 1; assay: Potency index, ratio of efavirenz EC50 to test compound EC50 for antiviral activity against HIV1 harboring F227L/V106A double mutant; type: functional
[21] = tested on: Human immunodeficiency virus 1; assay: Potency index, ratio of nevirapine EC50 to test compound EC50 for antiviral activity against HIV1 IIIB; type: functional
[22] = tested on: Human immunodeficiency virus 1; assay: microbe, parasite or virus in culture; conditions: Human immunodeficiency virus 1, RES056, MT4
Description: Antiviral activity against HIV1 RES056 infected in MT-4 cells assessed as viral induced cytopathic effect by MTT assay

[23] = tested on: Human immunodeficiency virus 1; assay: Potency index, ratio of etravirine EC50 to test compound EC50 for antiviral activity against HIV1 harboring E138K mutant; type: functional
[24] = AUCt in Sprague-Dawley rat at 2 mg/kg, iv; type: ADME, organism-based; conditions: in vivo
[25] = Selectivity index, ratio of CC50 for human MT4 cells to EC50 for antiviral activity against HIV IIIB
[26] = Volume of distribution in Sprague-Dawley rat at 2 mg/kg, iv; type: ADME, organism-based; conditions: in vivo
[27] = tested on: Human immunodeficiency virus 1; assay: Antiviral activity against HIV1 harboring F227L/V106A double mutant infected in MT4 cells; type: functional, organism-based; conditions: Human immunodeficiency virus 1, MT4
[28] = tested on: Human immunodeficiency virus 1; assay: microbe, parasite or virus in culture; conditions: Human immunodeficiency virus 1, IIIB, MT4
Description: Antiviral activity against HIV1 IIIB infected in MT-4 cells assessed as viral induced cytopathic effect by MTT assay

[29] = tested on: Human immunodeficiency virus 1; assay: Antiviral activity against HIV1 harboring L100I mutant infected in MT4 cells; type: functional, organism-based; conditions: Human immunodeficiency virus 1, MT4
[30] = target: Human immunodeficiency virus type 1 reverse transcriptase (Human immunodeficiency virus 1, UniProt Q72547); assay: Inhibition of wild type HIV-1 reverse transcriptase

Chain of Cytochrome P450 2C9 (P11712 whole entry): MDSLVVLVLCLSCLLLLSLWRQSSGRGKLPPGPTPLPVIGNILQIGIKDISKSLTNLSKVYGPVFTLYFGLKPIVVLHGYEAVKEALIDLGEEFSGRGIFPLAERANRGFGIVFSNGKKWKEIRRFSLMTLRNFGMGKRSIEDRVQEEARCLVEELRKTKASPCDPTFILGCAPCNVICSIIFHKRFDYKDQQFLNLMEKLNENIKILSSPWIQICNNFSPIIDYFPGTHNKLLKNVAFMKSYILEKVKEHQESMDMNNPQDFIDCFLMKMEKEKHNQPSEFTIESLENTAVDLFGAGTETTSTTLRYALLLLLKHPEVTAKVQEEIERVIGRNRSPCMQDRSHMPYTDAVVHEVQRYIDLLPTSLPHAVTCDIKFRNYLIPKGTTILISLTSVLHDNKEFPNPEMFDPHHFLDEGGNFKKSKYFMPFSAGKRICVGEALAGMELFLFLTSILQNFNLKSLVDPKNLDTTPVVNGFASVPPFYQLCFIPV
Chain of Cytochrome P450 2D6 (P10635 whole entry): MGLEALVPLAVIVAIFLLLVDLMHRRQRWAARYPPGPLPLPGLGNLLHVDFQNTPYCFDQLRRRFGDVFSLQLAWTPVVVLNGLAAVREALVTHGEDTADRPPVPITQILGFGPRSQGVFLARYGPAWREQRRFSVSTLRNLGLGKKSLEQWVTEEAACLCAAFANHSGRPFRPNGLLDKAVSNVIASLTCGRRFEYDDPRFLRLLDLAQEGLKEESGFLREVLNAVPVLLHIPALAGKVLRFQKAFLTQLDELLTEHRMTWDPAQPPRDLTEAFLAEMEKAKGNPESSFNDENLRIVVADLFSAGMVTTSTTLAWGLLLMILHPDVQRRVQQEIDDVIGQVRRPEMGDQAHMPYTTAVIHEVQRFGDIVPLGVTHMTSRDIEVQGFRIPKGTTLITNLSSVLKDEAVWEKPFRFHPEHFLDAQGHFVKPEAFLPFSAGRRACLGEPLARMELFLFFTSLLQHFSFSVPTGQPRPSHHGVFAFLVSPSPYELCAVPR
Chain of Cytochrome P450 2C19 (P33261 whole entry): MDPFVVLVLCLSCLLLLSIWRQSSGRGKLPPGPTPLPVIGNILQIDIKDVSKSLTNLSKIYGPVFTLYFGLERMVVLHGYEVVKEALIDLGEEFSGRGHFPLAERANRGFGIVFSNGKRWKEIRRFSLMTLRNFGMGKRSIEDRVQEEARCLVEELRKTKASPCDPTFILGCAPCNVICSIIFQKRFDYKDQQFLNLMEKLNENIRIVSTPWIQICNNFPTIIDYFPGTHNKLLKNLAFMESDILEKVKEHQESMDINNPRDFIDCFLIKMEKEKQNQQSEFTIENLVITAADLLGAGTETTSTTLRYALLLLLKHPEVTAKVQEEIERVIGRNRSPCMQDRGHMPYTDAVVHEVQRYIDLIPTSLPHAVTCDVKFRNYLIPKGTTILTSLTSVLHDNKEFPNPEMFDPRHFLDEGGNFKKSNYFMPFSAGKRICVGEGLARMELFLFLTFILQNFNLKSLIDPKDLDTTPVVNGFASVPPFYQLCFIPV
Chain of Cytochrome P450 3A4 (P08684 whole entry): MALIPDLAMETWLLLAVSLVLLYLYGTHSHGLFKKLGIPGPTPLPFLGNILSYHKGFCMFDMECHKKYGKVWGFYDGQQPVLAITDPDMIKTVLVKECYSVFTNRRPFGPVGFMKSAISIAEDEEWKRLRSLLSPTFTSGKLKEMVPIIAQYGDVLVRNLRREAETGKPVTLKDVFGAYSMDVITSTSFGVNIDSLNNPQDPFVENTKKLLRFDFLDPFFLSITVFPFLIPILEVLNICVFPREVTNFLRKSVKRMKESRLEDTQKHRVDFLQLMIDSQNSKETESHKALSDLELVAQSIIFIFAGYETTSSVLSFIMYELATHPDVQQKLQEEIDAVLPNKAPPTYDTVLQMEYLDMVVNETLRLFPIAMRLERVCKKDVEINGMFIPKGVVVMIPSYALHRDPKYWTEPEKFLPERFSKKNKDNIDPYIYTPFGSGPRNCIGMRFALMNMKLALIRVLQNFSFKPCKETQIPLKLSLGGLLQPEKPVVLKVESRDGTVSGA

Cc1cc(/C=C/C#N)cc(C)c1Oc1ccnc(Nc2ccc(N3CCS(=O)(=O)CC3)c(F)c2)n1
Ratio EC50 [1]: 3.3
Ratio EC50 [2]: 10.9
IC50 (Cytochrome P450 2C9): 5570 nM
EC50 [3]: 1 nM
Ratio EC50 [4]: 3.9
Ratio EC50 [5]: 3.7
IC50 (Cytochrome P450 2D6): 14800 nM
Ratio EC50 [6]: 2.7
clearance [7]: 106 mL/min/kg
selectivity ratio [8]: 86
Ratio EC50 [9]: 32
half-life [10]: 6.59 h
IC50 (Cytochrome P450 1A2): 21200 nM
Ratio EC50 [11]: 5490
AUC(0-inf) [12]: 316 ng·h/mL
EC50 [13]: 1170 nM
IC50 (Cytochrome P450 3A4): > 100000 nM
IC50 (Cytochrome P450 2C19): 5280 nM
CC50 [14]: 15800 nM
Ratio EC50 [15]: 3.4
Ratio EC50 [16]: 10
Cmax [17]: 390 ng/mL
EC50 [18]: 6 nM
EC50 [19]: 8 nM
Ratio EC50 [20]: 10
Ratio EC50 [21]: 190
EC50 [22]: 180 nM
Ratio EC50 [23]: 3.1
AUC(0-t) [24]: 297 ng·h/mL
selectivity ratio [25]: 15500
Vd [26]: 60.1 L/kg
EC50 [27]: 24 nM
EC50 [28]: 1 nM
EC50 [29]: 5 nM
IC50 [30]: 23 nM
